These results are taken from US9359371B2, “Bicyclic substituted pyrimidine compounds” (Xuanzhu Pharma Co., Ltd., priority 2012, dated 2016).

Data set [1] is described as follows: Pharmacokinetics (PK) in SD rats. To be noted: rat; for AUC(0-inf) / Cmax / Tmax / half-life / bioavailability: SD, plasma; for bioavailability: read-out: F % (absolute bioavailability). It counts as in vivo. The method, then:
Experiment 9: Assay of Pharmacokinetics (PK) of the Compounds of the Present Invention in SD Rats
Compound 1-54 of the present invention were prepared by the methods described in Example 1 to Example 54 of the present invention.
The control drug Avanafil, of which the structure was stated above, was purchased commercially.
Collection of the rat's blood: The animal was fixed. The tail was warmed with a water bath 10 min before the collection time. About 200 μL of whole blood was collected from the tail vein. The collected blood was collected into anticoagulant tubes containing heparin sodium. The blood samples were centrifuged at 4° C. by 8000 rpm for 6 min to give the plasma samples, which should be prepared within 30 min after the collection of blood. The plasma samples were stored in a freezer of −80° C. until test.
The result output by Analyst 1.5.1 of AB Company was used as the concentration of the tested sample (plasma sample). The mean value, standard deviation, variable coefficient and the like were calculated by Microsoft Excel (except for the result directly output by Analyst 1.5.1). Parameters of PK were calculated by Pharsight Phoenix 6.2 software. Formula for calculating oral bioavailability: F %=AUCinf−po*Doseiv/AUCinf−iv*Dosepo.

In data set [2] the target is PDE-5A enzyme (Homo sapiens (Human), UniProt O76074). The data set is described as follows: Caliper Mobility-Shift PDE-5A Assay. It counts as biochemical. To be noted: Table 1; Avanafil value is the control. The method, then:
Experiment 1: Measurement of Enzymatic Activity In Vitro
PDE-5A enzyme: humanized PDE-5 enzyme, SignalChem, Cat#93-31G-20.
Method: enzyme assay, Caliper Mobility-Shift PDE-5A Assay:
The test compound was accurately weighed, dissolved in DMSO, mixed thoroughly and formulated into 10 mM.
The maximum final concentration of the compound was 10 μM. The plate was incubated at 30° C. for 1 h, and 20 μL of 70 μM EDTA was then added to stop the reaction. 26 μL of solution of each well was transferred to a 384-well plate. The conversion was read on a EZ reader II. The inhibition rate was calculated by the formula below, and used to calculate IC50 by Prism 5.0 Inhibition rate=[Conversion (ZPE)−Conversion (sample)]×100/[Conversion (ZPE)−Conversion (HPE)]
Note: HPE: control without enzyme; ZPE: control without a test compound

Where [3] appears, read: po, intragastric administration, 5 mg/kg.
Where [4] appears, read: po, intragastric administration, 2 mg/kg.

Read-outs that look alike come from different tables or passages of the source.

On to `CCOc1ccc(CNc2nc(N3CC4CC4C3)ncc2C(=O)N[C@H]2CC[C@H](O)CC2)cc1F` (stereo partly drawn) [Compound 49, 2-(3-azabicyclo[3.1.0]hexan-3-yl)-4-((3-fluoro-4-ethoxybenzyl)amino)-N-((trans)-4-hydroxycyclohexyl)pyrimidine-5-formamide], for which, in data set [1] (setting [3]), the AUC(0-inf) (in general, total exposure, with the tail of the curve extrapolated) turned out to be 5840 ng·h/mL; the concentration peaked (Cmax) at 505 ng/mL; the time to peak (Tmax) – broadly, the time at which the peak concentration occurs – was 4 h; the half-life (commonly the time in which the quantity being followed falls by half) is 4.1 h. Further, the bioavailability (in general, dose-corrected exposure relative to a reference, in per cent) in data set [1] (setting [3]) was determined as 60%. In data set [1] (intravenous injection, 2 mg/kg), the AUC(0-inf) came out at 3860 ng·h/mL, the half-life is 3.9 h, the Cl_obs worked out at 8.67 mL/min/kg and the Vss_obs is 2.46 L/kg.

Turning to `COc1ccc(CNc2nc(N3CCC4(CC4)C3)ncc2C(=O)NCc2ccccc2)cc1Cl` [Compound 21, N-benzyl-4-((3-chloro-4-methoxybenzyl)amino)-2-(5-azaspiro[2.4]heptan-5-yl)pyrimidine-5-formamide], the IC50 (commonly the midpoint of a concentration-inhibition curve) in data set [2] is 17.3 nM.

As to `CCOc1ccc(CNc2nc(N3CC4CC4C3)ncc2C(=O)N[C@H]2CC[C@H](O)CC2)cc1C` (stereo partly drawn) [Compound 51, 2-(3-azabicyclo[3.1.0]hexan-3-yl)-N-(trans-4-hydroxycyclohexyl)-4-((4-ethoxy-3-methylbenzyl)amino)pyrimidine-5-formamide], in data set [1] (setting [3]), the total exposure AUC(0-inf) amounted to 5800 ng·h/mL, the peak level (Cmax) was 402 ng/mL, the Tmax was found to be 6 h and the half-life is 7.3 h. The bioavailability in data set [1] (setting [3]) is 52%. Also, in data set [1] (intravenous injection, 2 mg/kg), the area under the curve AUC(0-inf) worked out at 4400 ng·h/mL, the half-life was 8.8 h, the Cl_obs worked out at 7.83 mL/min/kg and the Vss_obs came out at 5.58 L/kg.

For `CCOc1ccc(CNc2nc(N3CC4CC4C3)ncc2C(=O)N[C@H]2CC[C@H](O)CC2)cc1Cl` (stereo partly drawn) [Compound 52, 2-(3-azabicyclo[3.1.0]hexan-3-yl)-4-((3-chloro-4-ethoxybenzyl)amino)-N-((trans)-4-hydroxycyclohexyl)pyrimidine-5-formamide], in data set [1] (setting [3]), the AUC(0-inf) came to 6000 ng·h/mL; the Cmax – broadly, the maximum level reached in the sampled fluid or tissue – was determined as 392 ng/mL; the Tmax stood at 6 h; the half-life is 8.4 h. In addition, the bioavailability in data set [1] (setting [3]) was determined as 65%. Besides, in data set [1] (intravenous injection, 2 mg/kg), the AUC(0-inf) was 3710 ng·h/mL, the half-life was 4.6 h, the Cl_obs was determined as 9 mL/min/kg and the Vss_obs is 3.02 L/kg.

As to `COc1ccc(CNc2nc(N3CCC4(CC3)CC4)ncc2C(=O)NCc2ncccn2)cc1Cl` [Compound 15, 4-((3-chloro-4-methoxybenzyl)amino)-N-(pyrimidin-2-ylmethyl)-2-(6-azaspiro[2.5]octan-6-yl)pyrimidine-5-formamide], the IC50 in data set [2] came to 26.8 nM.

In the case of `COc1ccc(CNc2nc(N3CCC4(CC4)C3)ncc2C(=O)NCCN2CCOCC2)cc1Cl` [Compound 39, 4-((3-chloro-4-methoxybenzyl)amino)-N-(2-morpholinoethyl)-2-(5-azaspiro[2.4]heptan-5-yl)pyrimidine-5-formamide], the IC50 in data set [2] is 21.4 nM.

As to `COc1ccc(CNc2nc(N3CCC4(CC4)C3)ncc2C(=O)NCc2ncccn2)cc1Cl` [Compound 41, 4-((3-chloro-4-methoxybenzyl)amino)-N-(pyrimidin-2-ylmethyl)-2-(5-azaspiro[2.4]heptan-5-yl)pyrimidine-5-formamide], in data set [1] (setting [4]), the area under the curve AUC(0-inf) worked out at 67 ng·h/mL, the Cmax was 43.8 ng/mL, the Tmax turned out to be 0.5 h and the half-life is 0.91 h. In addition, the bioavailability in data set [1] (setting [4]) is 17.7%. In data set [1] (intravenous injection, 1 mg/kg), this molecule had an AUC(0-inf) of 188 ng·h/mL, a half-life of 0.83 h, a Cl_obs of 89.2 mL/min/kg and a Vss_obs of 6.62 L/kg. In data set [2], the IC50 was determined as 22.9 nM.

Turning to `COc1ccc(CNc2nc(N3CC4CC4C3CO)ncc2C(=O)NCc2ncccn2)cc1Cl` (stereo not shown) [Compound 27, 4-((3-chloro-4-methoxybenzyl)amino)-2-(2-(hydroxylmethyl)-3-azabicyclo[3.1.0]hexan-3-yl)-N-(pyrimidin-2-ylmethyl)pyrimidine-5-formamide], the half-maximal inhibitory concentration (IC50) in data set [2] worked out at 10.4 nM.

For `COc1ccc(CNc2nc(N3CC4CC4C3CO)ncc2C(=O)NCCN2CCOCC2)cc1Cl` (stereo not shown) [Compound 34, 4-((3-chloro-4-methoxybenzyl)amino)-2-(2-(hydroxymethyl)-3-azabicyclo[3.1.0]hexan-3-yl)-N-(2-morpholinoethyl)pyrimidine-5-formamide], the IC50 in data set [2] amounted to 34.9 nM.

`COc1ccc(CNc2nc(N3CC4CC4C3CO)ncc2C(=O)NCc2ccccn2)cc1Cl` (stereo not shown) [Compound 37, 4-((3-chloro-4-methoxybenzyl)amino)-2-(2-(hydroxymethyl)-3-azabicyclo[3.1.0]hexan-3-yl)-N-(pyridin-2-ylmethyl)pyrimidine-5-formamide]: the IC50 in data set [2] stood at 33.3 nM.

For the molecule `COc1ncc(CNc2nc(N3CC4CC4C3)ncc2C(=O)NCc2ncccn2)cc1Cl` (stereo not shown) [Compound 25, 2-(3-diazabicyclo[3.1.0]hexan-3-yl)-4-(((5-chloro-6-methoxypyridin-3-yl)methyl)amino)-N-(pyrimidin-2-ylmethyl)pyrimidine-5-formamide], the IC50 in data set [2] stood at 47 nM.

For `CCOc1ccc(CNc2nc(N3CC4CC4C3)ncc2C(=O)N[C@H]2CC[C@H](O)CC2)cc1C(F)(F)F` (stereo partly drawn) [Compound 54, 2-(3-azabicyclo[3.1.0]hexan-3-yl)-N-((trans)-4-hydroxycyclohexyl)-4-((4-ethoxy-3-(trifluoromethyl)benzyl)amino)pyrimidine-5-formamide], in data set [1] (setting [3]), the AUC(0-inf) stood at 1420 ng·h/mL, the Cmax was 200 ng/mL, the time of peak concentration (Tmax) is 4 h and the half-life is 2.7 h. The bioavailability in data set [1] (setting [3]) is 40%. In data set [1] (intravenous injection, 2 mg/kg), the AUC(0-inf) came to 1430 ng·h/mL, the half-life is 2.3 h, the Cl_obs came out at 23.8 mL/min/kg and the Vss_obs is listed as 3.87 L/kg.

Regarding `COc1ccc(CNc2nc(N3CC4CC4C3)ncc2C(=O)N[C@H]2CC[C@H](O)CC2)cc1C(F)(F)F` (stereo partly drawn) [Compound 53, 2-(3-azabicyclo[3.1.0]hexan-3-yl)-N-((trans)-4-hydroxycyclohexyl)-4-((4-methoxy-3-(trifluoromethyl)benzyl)amino)pyrimidine-5-formamide], in data set [1] (setting [3]), the AUC(0-inf) came out at 917 ng·h/mL, the Cmax was found to be 156 ng/mL, the Tmax is 4 h and the bioavailability was 25%. In data set [1] (intravenous injection, 2 mg/kg), this molecule gave an AUC(0-inf) of 1500 ng·h/mL, a half-life of 1.8 h, a Cl_obs of 22.3 mL/min/kg and a Vss_obs of 2.33 L/kg.

For the molecule `COc1ccc(CNc2nc(N3CCC4(CCC4)C3)ncc2C(=O)NCc2ccccc2)cc1Cl` [Compound 28, N-benzyl-4-((3-chloro-4-methoxybenzyl)amino)-2-(6-azaspiro[3.4]octan-6-yl)pyrimidine-5-formamide], the IC50 in data set [2] stood at 22.6 nM.

On to `COc1ccc(CNc2nc(N3CCC4(CC3)CC4)ncc2C(=O)N[C@H]2CC[C@H](O)CC2)cc1Cl` [Compound 36, 4-((3-chloro-4-methoxybenzyl)amino)-N-(trams-4-hydroxycyclohexyl)-2-(6-azaspiro[2.5]octan-6-yl)pyrimidine-5-formamide], for which the IC50 in data set [2] was 52.4 nM.

Take `COc1ccc(CNc2nc(N3CC4CC4C3)ncc2C(=O)NCc2ccccn2)cc1Cl` (stereo not shown) [Compound 2, 2-(3-azabicyclo[3.1.0]hexan-3-yl)-4-((3-chloro-4-methoxybenzyl)amino)-N-(pyridin-2-ylmethyl)pyrimidine-5-formamide]: in data set [1] (setting [4]), the AUC(0-inf) stood at 69 ng·h/mL, the Cmax amounted to 12 ng/mL, the Tmax came to 1 h and the half-life was 2.95 h. In addition, the bioavailability in data set [1] (setting [4]) stood at 12%. Further, in data set [1] (intravenous injection, 1 mg/kg), the AUC(0-inf) was 219 ng·h/mL, the half-life was 1.78 h, the Cl_obs came to 77.2 mL/min/kg and the Vss_obs was 10.57 L/kg.

As for `COc1ccc(CNc2nc(N3CC4CC4C3CO)ncc2C(=O)N[C@H]2CC[C@H](O)CC2)cc1Cl` (stereo partly drawn) [Compound 35, 4-((3-chloro-4-methoxybenzyl)amino)-N-(trans-4-hydroxycyclohexyl)-2-(2-(hydroxymethyl)-3-azabicyclo[3.1.0]hexan-3-yl)pyrimidine-5-formamide], the IC50 in data set [2] stood at 47.2 nM.
